Earlier results in patent publication EP3738589B1, “A COMPOSITION FOR THE PREVENTION AND/OR TREATMENT OF OROPHARYNGEAL MUCOSA DISEASES” (Neilos S.r.l., priority 2019, dated 2020).

What was measured:
[1] = system: patients suffering from BPCO; settings: patients suffering from BPCO treated with NAC; from 1.71 times a year
[2] = system: oral mucositis caused by chemotherapy; settings: hematopoietic SCT
oral mucositis = settings: patients with cancer

In the case of CC(=O)N[C@@H](CS)C(=O)O [NAC, N-acetyl-L-cysteine], the reduction in exacerbations [1] is listed as 0.96 times a year, the “days of discomfort are reduced by” value (BPCO; BPCO) is listed as 0.56 days/month and the “exacerbations of the disease are reduced by” value (BPCO; BPCO) is listed as 0.07 exacerbation/month. For the same compound, the “reduce hospitalizations due to BPCO by” value (BPCO; BPCO) was 30%, the “increase in FEV1” value (BPCO; from 25%, after a short 4-week-therapy) was 30% and the “incidence and grade of oral mucositis” value [2] was “reduces the incidence and grade of oral mucositis”.

For O=C1O[C@H]([C@@H](O)CO)C(O)=C1O [vitamin C, ascorbic acid], the “severity of oral mucositis” value (oral mucositis) is given as “alleviates the severity of oral mucositis”.
